# Data taken from ChEMBL document CHEMBL4354877, “MymA Bioactivated Thioalkylbenzoxazole Prodrug Family Active against Mycobacterium tuberculosis” (J Med Chem, 2020).
# Experiments:
# Assay type in all cases: functional
# [1] = system: Mycobacterium tuberculosis; test: Antimycobacterial activity against Mycobacterium tuberculosis SG2 expressing ethA and mymA mutant assessed as inhibition of microbial growth incubated for 6 days by alamar blue resazurin assay
# [2] = system: Mycobacterium tuberculosis; test: Antimycobacterial activity against Mycobacterium tuberculosis 2-RM1 expressing ethA frameshift mutant assessed as inhibition of microbial growth incubated for 6 days by alamar blue resazurin assay
# [3] = system: Mycobacterium tuberculosis; test: Antimycobacterial activity against Mycobacterium tuberculosis 3-RM1 expressing mymA mutant assessed as inhibition of microbial growth incubated for 6 days by alamar blue resazurin assay
# [4] = system: Mycobacterium tuberculosis; test: Antimycobacterial activity against Mycobacterium tuberculosis Rv3083::Tn expressing mymA mutant assessed as inhibition of microbial growth incubated for 6 days by alamar blue resazurin assay
compound,measurement,setting,value
O=C(CCSc1nc2cc(Cl)ccc2o1)N1CCCC1,MIC,[1],80 µM
same,MIC,[2],10 µM
same,MIC,[3],40 µM
same,MIC,[4],40 µM
